Measured values reported in patent publication US20220241214A1, “NAN[…] W METHIDES AND COMPOSITIONS FOR USE” (priority 2019, published 2022).
Like-named read-outs stand apart in the source and are kept apart here.

Experiments:
PDX1 tumors = assay: Patient-derived xenograft (PDX1) model of endometrial cancer, tumor growth; format: in vivo; conditions: PDX1 mice, twice a week for 4 weeks; compared to control PLGA nanoparticles (combination: compared to all other groups)
Method: Patient-derived xenograft (PDX) studies: A PDX model of endometrial cancer (PDX1) has been previously described (Luo et al., 2010). NOD.Cg-Prkdcscid Il2rgtm1Wjl/SzJ (NSG, Jackson Laboratories, Bar Harbor, Me.) immunodeficient female mice at 8 weeks of age were injected with passage 3 of PDX1 tumor tissue (10 mg/100 μl medium) into the right flank subcutaneously. The mice were randomly divided into 4 groups, with 5 mice per drug treated group, and 4 mice comprised the empty nanoparticle control group. Treatment was started on day 15 after engraftment of cells. The dose of pristimerin delivered in nanoparticles was 60 μg for each mouse and was administered by intravenous injection (IV) injection twice a week for a total of 4 weeks. The dose of cisplatin was […] for each mouse and was administered by intraperitoneal (IP) injection twice a week for a total of 4 weeks. After 2 weeks of treatment, tumors were measured weekly using calipers, and volumes were calculated using the formula length×width^2/2.
All animal studies were performed under animal protocols #7051085 approved by the University of Iowa Institutional Animal Care and Use Committee (Iowa City, Iowa). MTDH knockout mice were generated as described previously (Meng et al., 2015). […] After 2 weeks of treatment, tumors were measured weekly using calipers, and volumes were calculated using the formula […].

[1] = previous reported; cited from earlier work
Hec50 cells = assay: Cell viability by WST-1 assay in Hec50 cells; format: cell-based; conditions: pristimerin 72 hours
Method: (§1) Cell viability was determined by WST-1 assay. Cells were seeded into 96-well plates (1×10^4 cells per well) then treated with cisplatin (Fresenius Kabi Oncology Ltd, Haryana, India) or the combination of cisplatin with pristimerin in solution (Cayman Chemical, Ann Arbor, Mich.). Cell viability was evaluated using the cell proliferation reagent WST-1 (Roche, Germany) according to the manufacturer's protocol. The absorbance was measured with a micro-plate reader (BioRad). Data were calculated as percent (%) viability relative to untreated control, which was set at 100%.
as §1, with “Ltd.,” for “Ltd,”, “Absorbance” for “The absorbance”, “microplate” for “micro-plate”

MDA-MB-231 cells = assay: Cell viability by WST-1 assay in MDA-MB-231 cells; format: cell-based; conditions: Homo sapiens, pristimerin 72 hours
Method: as §1
as §1, with “Ltd.,” for “Ltd,”, “Absorbance” for “The absorbance”, “microplate” for “micro-plate”

KLE cells = assay: Cell viability by WST-1 assay in KLE cells; format: cell-based; conditions: Homo sapiens, pristimerin 72 hours
Method: as §1
as §1, with “Ltd.,” for “Ltd,”, “Absorbance” for “The absorbance”, “microplate” for “micro-plate”

[2] = target: P-glycoprotein (P-gp) efflux transporter (Homo sapiens, UniProt P08183); conditions: not told; cited from earlier work
P-glycoprotein (P-gp) efflux transporter, sequence (P08183 whole entry): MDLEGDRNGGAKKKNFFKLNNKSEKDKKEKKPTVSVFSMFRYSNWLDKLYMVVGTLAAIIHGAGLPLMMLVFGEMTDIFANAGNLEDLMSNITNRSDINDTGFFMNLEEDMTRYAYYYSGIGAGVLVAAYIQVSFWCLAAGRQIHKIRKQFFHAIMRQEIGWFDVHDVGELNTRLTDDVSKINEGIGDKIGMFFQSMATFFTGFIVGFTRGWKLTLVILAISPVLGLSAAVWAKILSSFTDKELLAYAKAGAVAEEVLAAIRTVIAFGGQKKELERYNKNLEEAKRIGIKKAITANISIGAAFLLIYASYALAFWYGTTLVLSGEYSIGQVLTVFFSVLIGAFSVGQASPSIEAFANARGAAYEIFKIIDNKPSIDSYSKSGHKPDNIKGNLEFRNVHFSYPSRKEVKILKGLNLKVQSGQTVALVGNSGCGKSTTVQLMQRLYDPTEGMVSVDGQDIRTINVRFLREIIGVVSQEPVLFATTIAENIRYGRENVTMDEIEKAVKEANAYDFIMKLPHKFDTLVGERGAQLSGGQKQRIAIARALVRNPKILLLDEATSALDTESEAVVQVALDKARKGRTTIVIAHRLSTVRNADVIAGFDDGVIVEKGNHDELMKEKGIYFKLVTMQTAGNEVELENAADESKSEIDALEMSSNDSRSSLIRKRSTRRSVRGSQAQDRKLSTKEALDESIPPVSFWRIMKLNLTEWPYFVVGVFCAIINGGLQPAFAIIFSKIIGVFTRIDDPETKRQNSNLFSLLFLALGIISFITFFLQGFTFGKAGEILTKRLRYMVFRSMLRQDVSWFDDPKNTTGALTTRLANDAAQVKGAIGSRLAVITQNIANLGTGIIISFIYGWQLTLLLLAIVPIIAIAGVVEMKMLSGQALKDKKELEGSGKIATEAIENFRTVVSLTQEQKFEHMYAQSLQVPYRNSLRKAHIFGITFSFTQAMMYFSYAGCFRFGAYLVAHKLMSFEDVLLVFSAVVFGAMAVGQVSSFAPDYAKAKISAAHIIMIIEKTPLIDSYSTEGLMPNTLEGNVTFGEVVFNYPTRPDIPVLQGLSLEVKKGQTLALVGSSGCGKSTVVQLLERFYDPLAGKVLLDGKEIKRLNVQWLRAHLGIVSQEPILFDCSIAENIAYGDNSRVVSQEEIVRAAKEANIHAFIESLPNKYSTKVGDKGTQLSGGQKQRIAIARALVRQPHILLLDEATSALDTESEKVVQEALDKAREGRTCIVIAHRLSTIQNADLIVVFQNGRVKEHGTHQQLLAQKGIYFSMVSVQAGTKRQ

[3] = Solubility and pharmacokinetics (statement); conditions: pristimerin in solution

N.N.[Cl][Pt][Cl] [cisplatin]
tumor growth (PDX1 tumors): significantly inhibited

CC1=C(O)C(=O)C=C2C1=CC=C1[C@@]2(C)CC[C@@]2(C)[C@@H]3C[C@](C)(C(=O)O)CC[C@]3(C)CC[C@]12C [celastrol]
solubility and pharmacokinetics [1]: poor

COC(=O)[C@]1(C)CC[C@]2(C)CC[C@]3(C)C4=CC=C5C(=CC(=O)C(O)=C5C)[C@]4(C)CC[C@@]3(C)[C@@H]2C1 [pristimerin, Pristimerin]
IC50 (Hec50 cells): < 1000 nM
IC50 (MDA-MB-231 cells): < 1000 nM
IC50 (KLE cells): < 1000 nM
substrate to P-gp [2]: substrate
solubility and pharmacokinetics [3]: poor
